Source: patent US20240101576A1, “HETEROCYCLIC INHIBITORS OF EGFR AND/OR HER2, FOR USE IN THE TREATMENT OF CANCER” (Scorpion Therapeutics, Inc., priority 2020, published 2024)

Columns and labels:
Assay type in all cases: cell-based
[1] = target: T1, EGFR exon 20 SVD Ins D770_N771 (Ba/F3 cells) (Homo sapiens, UniProt P00533, INS770SVD); assay: Inhibitor activity on EGFR-dependent cell growth (CellTiter-Glo, 72 h), Ba/F3 EGFR exon 20 SVD Ins; settings: read-out: BaF3 SVD IC50
T1 construct: expressed in transfected cells; host or cells: Ba/F3 (murine pro-B cells), retroviral transduction, puromycin selection, IL3-independent pool
Outline: (§1)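 IC50s derive from a sigmoidal dose–response fit of CellTiter-Glo signal. The signal was normalised between […]-treated cells and cell-free medium. Ba/F3 mutant-EGFR cells, seeded at 400–800/well depending on the line, had 72 h of exposure to a 10-point, 3-fold compound series.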

EGFR WT (Ba/F3 cells) = target: T2, EGFR WT (Ba/F3 cells) (Homo sapiens, UniProt P00533); assay: Inhibitor activity on EGFR-dependent cell growth (CellTiter-Glo, 72 h), Ba/F3 EGFR WT; settings: read-out: BaF3 WT IC50
T2 construct: expressed in transfected cells; host or cells: Ba/F3 (murine pro-B cells), retroviral transduction, puromycin selection, maintained with EGF
Outline: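 This growth assay used Ba/F3 cells that depend on wild-type EGFR and are kept in EGF without IL3. Compounds were made up as 10 mM DMSO stocks and diluted 3-fold over 10 points. 120 nL went onto 600 cells/well. After 72 hours, 40 μL CellTiter-Glo was added and luminescence read on EnVision after 30 min.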

[2] = target: T3, EGFR exon 20 ASV Ins V769_D770 (Ba/F3 cells) (Homo sapiens, UniProt P00533, INS769ASV); assay: Inhibitor activity on EGFR-dependent cell growth (CellTiter-Glo, 72 h), Ba/F3 EGFR exon 20 ASV Ins; settings: read-out: BaF3 ASV IC50
T3 construct: expressed in transfected cells; host or cells: Ba/F3 (murine pro-B cells), retroviral transduction, puromycin selection, IL3-independent pool
Outline: as §1

[3] = target: T4, EGFR exon 20 FQEA Ins A763_V764 (Ba/F3 cells) (Homo sapiens, UniProt P00533, INS763FQEA); assay: Inhibitor activity on EGFR-dependent cell growth (CellTiter-Glo, 72 h), Ba/F3 EGFR exon 20 FQEA Ins; settings: read-out: BaF3 FQEA IC50
T4 construct: expressed in transfected cells; host or cells: Ba/F3 (murine pro-B cells), retroviral transduction, puromycin selection, IL3-independent pool
Outline: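 For each mutant line, growth depends on EGFR signalling in the absence of IL3. Density per well: 400 for L858R, 600 for the C797S double mutant, 800 for exon 19del and FQEA. Ten threefold dilutions were applied for 72 h. %Inhibition = 100×(DMSO − sample)/(DMSO − medium blank).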

[4] = target: T3, EGFR exon 20 ASV Ins V769_D770 (Ba/F3 cells); assay: Inhibitor activity on EGFR phosphorylation (pEGFR AlphaLISA, 2 h), Ba/F3 EGFR exon 20 ASV Ins; settings: EGFR phosphorylation, AlphaLISA, 2 hours; read-out: ASV IC50 (pEGFR)
From the text: Example B. Inhibitor Activity on EGFR phosphorylation (pEGFR)
EGFR mutant Ba/F3 cells were generated by transduction with retrovirus containing vectors expressing EGFR L858R, EGFR exon 19del, EGFR L858R/C797S, EGFR exon 20 NPG Ins D770_N771, EGFR exon 20 ASV Ins V769_D770, or EGFR exon 20 SVD Ins D770_N771 genes along with a puromycin selection marker. Transduced cells are selected with puromycin for 7 days and are then be transferred into culture media without Interleukin 3 (IL3). Surviving cells are confirmed to express EGFR by Western blot and maintained as a pool. CUTO14 cells were obtained from Dr. Robert C. Doebele at the University of Colorado. The IC50 date are included in Table 6 and Table 7.
1.1 Cells are harvested from flask into cell culture medium and the cell number counted.
1.2 Cells are diluted with culture medium to the desired density and 40 μL of cell suspension is added into each well of 384-well cell culture plate and the seeding density is 50K cells/well (Ba/F3) or 12.5K cells/well (CUTO14).
2 Compound Preparation and Treatment
2.1 Test compounds are dissolved to 10 mM in a DMSO stock solution. 45 μL of stock solution is transferred to a 384 polypropylene plate (pp-plate). Perform 3-fold, 10-point dilution via transferring 15 μL compound into 30 μL DMSO using a TECAN (EVO200) liquid handler.
2.2 Spin plates at room temperature at 1,000 RPM for 1 minute.
2.3 Transfer 5 nL of diluted compound from compound source plate into the cell plate.
2.4 After compound treatment for 2 hours, perform pEGFR detection by AlphaLISA for compound treatment plates as described in “Detection” section.
3 Detection by pEGFR AlphaLISA (Perkin-Elmer)
3.1 Plates are removed from incubators and equilibrated at room temperature for 10 minutes, and media was removed
3.2 10 μL of lysis buffer is added and plates shaken at 600 rpm for 1 hr.
3.3 Prepare acceptor mix just before use and dispense 5 μL of acceptor mix to all the wells. Shake 350 rpm for Ihr in the dark
3.4 Prepare donor mix under low light conditions prior to use. Dispense 5 μL of donor mix to all the wells. Mix well on the shaker, seal and wrap in aluminum foil and incubate 1.5 hrs at room temperature in the dark
3.5 Transfer 18.5 μL mixture to OptiPlate 384, and read using an Envision. The IC50 date were included in Table 6 and Table 7.

T4 sequence (P00533 with tags, fused parts or gaps INS763FQEA): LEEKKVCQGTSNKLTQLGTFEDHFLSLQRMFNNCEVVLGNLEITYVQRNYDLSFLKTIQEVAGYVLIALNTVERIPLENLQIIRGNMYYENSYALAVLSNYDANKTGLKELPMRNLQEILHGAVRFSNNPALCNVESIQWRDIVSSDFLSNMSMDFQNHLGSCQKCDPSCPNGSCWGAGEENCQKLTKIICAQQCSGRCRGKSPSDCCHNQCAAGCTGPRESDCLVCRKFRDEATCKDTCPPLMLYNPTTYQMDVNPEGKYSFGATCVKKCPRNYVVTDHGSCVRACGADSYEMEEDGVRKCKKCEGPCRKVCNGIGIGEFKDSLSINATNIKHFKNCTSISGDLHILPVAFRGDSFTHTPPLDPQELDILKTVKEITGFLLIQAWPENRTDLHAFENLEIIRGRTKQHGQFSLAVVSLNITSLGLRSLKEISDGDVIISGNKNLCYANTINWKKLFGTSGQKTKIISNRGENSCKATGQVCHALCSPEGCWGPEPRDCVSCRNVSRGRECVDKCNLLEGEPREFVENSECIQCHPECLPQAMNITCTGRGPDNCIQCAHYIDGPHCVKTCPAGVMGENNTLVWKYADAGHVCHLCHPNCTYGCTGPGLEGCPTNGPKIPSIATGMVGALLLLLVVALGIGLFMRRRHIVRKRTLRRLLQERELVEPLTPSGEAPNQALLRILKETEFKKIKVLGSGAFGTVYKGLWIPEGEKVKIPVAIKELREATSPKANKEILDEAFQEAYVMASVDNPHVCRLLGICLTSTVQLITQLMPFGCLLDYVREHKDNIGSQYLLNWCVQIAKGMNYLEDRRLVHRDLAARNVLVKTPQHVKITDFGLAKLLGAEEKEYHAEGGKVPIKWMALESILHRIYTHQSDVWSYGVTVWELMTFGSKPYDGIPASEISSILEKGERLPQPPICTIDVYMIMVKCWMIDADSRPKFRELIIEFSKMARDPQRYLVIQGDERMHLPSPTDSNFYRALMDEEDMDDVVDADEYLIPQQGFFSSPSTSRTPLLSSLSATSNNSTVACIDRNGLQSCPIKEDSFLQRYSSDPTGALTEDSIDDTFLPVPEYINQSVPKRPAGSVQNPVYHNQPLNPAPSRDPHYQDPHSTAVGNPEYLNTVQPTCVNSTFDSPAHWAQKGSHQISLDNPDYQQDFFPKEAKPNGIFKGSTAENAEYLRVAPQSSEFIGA
T3 sequence (P00533 with tags, fused parts or gaps INS769ASV): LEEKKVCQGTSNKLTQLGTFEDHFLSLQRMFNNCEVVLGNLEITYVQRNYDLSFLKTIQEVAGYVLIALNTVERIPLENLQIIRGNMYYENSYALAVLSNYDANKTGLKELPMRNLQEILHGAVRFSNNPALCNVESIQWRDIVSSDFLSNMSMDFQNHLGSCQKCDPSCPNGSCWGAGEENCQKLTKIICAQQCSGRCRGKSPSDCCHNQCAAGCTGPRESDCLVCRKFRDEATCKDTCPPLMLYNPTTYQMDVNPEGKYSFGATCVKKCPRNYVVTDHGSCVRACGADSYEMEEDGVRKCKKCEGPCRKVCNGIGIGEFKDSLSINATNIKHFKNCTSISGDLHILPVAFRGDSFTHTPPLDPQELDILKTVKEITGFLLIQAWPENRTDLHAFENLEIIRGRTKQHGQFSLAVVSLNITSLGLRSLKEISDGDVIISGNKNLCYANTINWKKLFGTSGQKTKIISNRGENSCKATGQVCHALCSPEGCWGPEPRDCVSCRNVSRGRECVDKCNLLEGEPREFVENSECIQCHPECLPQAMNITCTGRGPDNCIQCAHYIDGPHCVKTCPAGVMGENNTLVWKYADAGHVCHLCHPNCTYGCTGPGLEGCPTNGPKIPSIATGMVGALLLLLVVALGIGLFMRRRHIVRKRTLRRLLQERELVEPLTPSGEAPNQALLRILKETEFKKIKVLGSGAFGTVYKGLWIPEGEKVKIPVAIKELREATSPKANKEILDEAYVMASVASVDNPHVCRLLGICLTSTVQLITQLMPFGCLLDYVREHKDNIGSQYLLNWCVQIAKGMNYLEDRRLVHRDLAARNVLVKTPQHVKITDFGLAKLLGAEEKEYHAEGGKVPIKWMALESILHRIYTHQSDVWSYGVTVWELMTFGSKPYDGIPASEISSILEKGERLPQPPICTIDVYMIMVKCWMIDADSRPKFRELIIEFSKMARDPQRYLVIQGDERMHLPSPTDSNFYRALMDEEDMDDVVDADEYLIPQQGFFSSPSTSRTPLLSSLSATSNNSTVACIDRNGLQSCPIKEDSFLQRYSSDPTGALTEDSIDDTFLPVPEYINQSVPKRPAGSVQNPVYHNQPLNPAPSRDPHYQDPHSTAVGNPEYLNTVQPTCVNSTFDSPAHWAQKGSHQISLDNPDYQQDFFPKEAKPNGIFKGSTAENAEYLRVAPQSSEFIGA
T2 sequence (P00533 25-1210): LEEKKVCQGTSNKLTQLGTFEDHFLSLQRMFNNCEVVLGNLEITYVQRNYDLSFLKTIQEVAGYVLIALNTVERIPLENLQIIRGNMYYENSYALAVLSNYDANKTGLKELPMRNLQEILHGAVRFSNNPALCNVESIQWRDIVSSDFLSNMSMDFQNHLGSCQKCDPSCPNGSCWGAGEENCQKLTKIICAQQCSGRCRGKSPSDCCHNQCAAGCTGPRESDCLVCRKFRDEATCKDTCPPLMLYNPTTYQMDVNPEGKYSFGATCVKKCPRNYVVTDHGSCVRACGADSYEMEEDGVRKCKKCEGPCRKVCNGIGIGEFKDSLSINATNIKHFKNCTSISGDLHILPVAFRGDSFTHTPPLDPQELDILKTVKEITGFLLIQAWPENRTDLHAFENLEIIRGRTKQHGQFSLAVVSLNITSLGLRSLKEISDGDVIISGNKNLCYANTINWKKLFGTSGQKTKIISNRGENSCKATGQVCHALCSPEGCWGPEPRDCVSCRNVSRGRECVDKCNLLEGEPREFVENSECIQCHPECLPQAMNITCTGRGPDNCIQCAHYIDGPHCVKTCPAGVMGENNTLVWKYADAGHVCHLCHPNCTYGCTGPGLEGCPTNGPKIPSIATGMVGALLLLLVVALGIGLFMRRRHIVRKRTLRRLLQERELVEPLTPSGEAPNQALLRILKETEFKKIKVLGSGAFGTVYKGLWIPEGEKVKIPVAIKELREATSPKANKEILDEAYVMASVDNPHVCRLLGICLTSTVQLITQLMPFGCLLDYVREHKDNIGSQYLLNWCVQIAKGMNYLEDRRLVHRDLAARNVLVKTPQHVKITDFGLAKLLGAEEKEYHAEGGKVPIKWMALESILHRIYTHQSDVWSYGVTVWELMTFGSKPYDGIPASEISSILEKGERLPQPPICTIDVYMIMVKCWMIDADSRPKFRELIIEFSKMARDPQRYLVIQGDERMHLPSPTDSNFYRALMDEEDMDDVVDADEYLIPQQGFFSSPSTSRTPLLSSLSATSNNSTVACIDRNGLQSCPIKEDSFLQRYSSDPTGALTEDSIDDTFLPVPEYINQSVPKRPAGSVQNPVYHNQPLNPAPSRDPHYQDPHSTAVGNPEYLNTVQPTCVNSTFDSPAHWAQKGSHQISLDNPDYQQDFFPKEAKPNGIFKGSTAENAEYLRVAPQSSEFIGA
T1 sequence (P00533 with tags, fused parts or gaps INS770SVD): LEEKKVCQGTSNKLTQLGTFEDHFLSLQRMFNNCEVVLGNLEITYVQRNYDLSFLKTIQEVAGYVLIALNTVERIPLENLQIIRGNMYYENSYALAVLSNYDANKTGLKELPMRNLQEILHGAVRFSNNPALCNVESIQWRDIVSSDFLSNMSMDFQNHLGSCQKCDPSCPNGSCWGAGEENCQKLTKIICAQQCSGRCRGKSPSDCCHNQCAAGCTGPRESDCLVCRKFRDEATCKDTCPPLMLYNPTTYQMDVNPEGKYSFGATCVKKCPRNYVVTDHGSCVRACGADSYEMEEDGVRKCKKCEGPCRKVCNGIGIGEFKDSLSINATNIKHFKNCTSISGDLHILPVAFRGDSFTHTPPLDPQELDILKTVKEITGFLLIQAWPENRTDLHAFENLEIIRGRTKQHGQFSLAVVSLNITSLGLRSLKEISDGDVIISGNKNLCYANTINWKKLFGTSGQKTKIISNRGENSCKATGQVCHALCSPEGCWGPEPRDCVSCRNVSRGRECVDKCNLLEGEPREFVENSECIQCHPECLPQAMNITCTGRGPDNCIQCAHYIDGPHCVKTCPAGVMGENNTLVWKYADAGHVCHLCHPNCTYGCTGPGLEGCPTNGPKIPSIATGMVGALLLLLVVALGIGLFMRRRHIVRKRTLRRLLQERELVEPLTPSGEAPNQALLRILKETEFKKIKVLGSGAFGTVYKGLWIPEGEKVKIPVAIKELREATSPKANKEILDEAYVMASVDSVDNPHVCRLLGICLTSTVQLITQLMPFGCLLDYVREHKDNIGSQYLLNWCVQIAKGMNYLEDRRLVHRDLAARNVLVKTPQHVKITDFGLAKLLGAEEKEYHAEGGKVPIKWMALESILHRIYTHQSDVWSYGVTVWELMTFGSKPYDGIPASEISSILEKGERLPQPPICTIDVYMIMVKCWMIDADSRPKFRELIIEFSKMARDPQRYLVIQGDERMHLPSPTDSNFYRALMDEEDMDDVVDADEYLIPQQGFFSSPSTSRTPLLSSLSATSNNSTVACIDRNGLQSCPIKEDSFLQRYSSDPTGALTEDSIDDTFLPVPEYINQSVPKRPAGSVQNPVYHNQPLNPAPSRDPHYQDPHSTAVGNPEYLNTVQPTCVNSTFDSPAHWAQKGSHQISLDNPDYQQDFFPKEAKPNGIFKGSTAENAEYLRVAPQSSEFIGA

| IC50 [1] [nM] | IC50 (EGFR WT (Ba/F3 cells)) [nM] | IC50 [2] [nM] | IC50 [3] [nM] | IC50 [4] [nM] | Compound |
| --- | --- | --- | --- | --- | --- |
| > 1000 | > 1000 | > 1000 | > 1000 | > 1000 | COc1cccc(Nc2c(-c3ccnc(N)n3)[nH]c3c2C(=O)NCC3)c1C [Compound 705, 2-(2-aminopyrimidin-4-yl)-3-[(3-methoxy-2-methylphenyl)amino]-1H,5H,6H,7H-pyrrolo[3,2-c]pyridin-4-one] |
| > 1000 | > 1000 | > 1000 | 100 to 1000 | 100 to 1000 | Cc1ccc(F)cc1Nc1c(-c2ccnc(N)n2)[nH]c2c1C(=O)NCC2 [compound 196] |
| > 1000 | > 1000 | > 1000 | > 1000 | > 1000 | CNc1cc(-c2[nH]c3c(c2Nc2cccc(Cl)c2OC)C(=O)NCC3)ncn1 [compound 284] |
| > 1000 | > 1000 | > 1000 | > 1000 | 100 to 1000 | COc1c(Cl)cccc1Nc1c(-c2ccnc(NCC3CC(F)(F)C3)c2)[nH]c2c1C(=O)NCC2 [compound 711] |
| > 1000 | > 1000 | > 1000 | > 1000 | 100 to 1000 | COc1c(Cl)cccc1Nc1c(-c2ccnc(NC3CC(F)(F)C3)n2)[nH]c2c1C(=O)NCC2 [Compound 712, 3-[(3-chloro-2-methoxyphenyl)amino]-2-[2-[(3,3-difluorocyclobutyl)amino]pyrimidin-4-yl]-1H,5H,6H,7H-pyrrolo[3,2-c] pyridin-4-one] |
| > 1000 | > 1000 | > 1000 | > 1000 | > 1000 | COc1c(Cl)cccc1Nc1c(-c2ccnc3[nH]c(=O)oc23)[nH]c2c1C(=O)NCC2 [compound 293] |
| > 1000 | > 1000 | > 1000 | > 1000 | > 1000 | Cc1c(C#N)cccc1Nc1c(-c2ccnc(N)n2)[nH]c2c1C(=O)NCC2 [compound 201] |
| > 1000 | > 1000 | > 1000 | > 1000 | 100 to 1000 | COc1c(F)cccc1Nc1c(-c2ccncn2)[nH]c2c1C(=O)NCC2 [compound 244] |
| > 1000 | > 1000 | > 1000 | > 1000 | > 1000 | COc1cccc(Nc2c(-c3ccnc(N)n3)[nH]c3c2C(=O)NCC3)c1Cl [compound 301] |
| < 100 | < 100 | < 100 | < 100 | < 100 | COc1c(F)cccc1Nc1c(-c2ccnc3ccc(NC4(C)CC4)nc23)[nH]c2c1C(=O)NCC2 [Compound 695, 3-[(3-fluoro-2-methoxyphenyl)amino]-2-[6-[(1-methylcyclopropyl)amino]-1,5-naphthyridin-4-yl]-1H,5H,6H,7H-pyrrolo[3,2-c]pyridin-4-one; formic acid] |
| > 1000 | > 1000 | > 1000 | > 1000 | > 1000 | COc1c(Cl)cccc1Nc1c(-c2nc(N)ncc2C#N)[nH]c2c1C(=O)NCC2 [Compound 693, 2-amino-4-[3-[(3-chloro-2-methoxyphenyl)amino]-4-oxo-1H,5H,6H,7H-pyrrolo[3,2-c]pyridin-2-yl]pyrimidine-5-carbonitrile] |
| > 1000 | > 1000 | > 1000 | > 1000 | > 1000 | Cc1cccc(F)c1Nc1c(-c2ccnc(N)n2)[nH]c2c1C(=O)NCC2 [compound 198] |
| < 100 | 100 to 1000 | < 100 | 100 to 1000 | < 100 | COc1c(Cl)cccc1Nc1c(-c2ccnc(N)c2F)[nH]c2c1C(=O)NCC2 [Compound 686, 2-(2-amino-3-fluoropyridin-4-yl)-3-[(3-chloro-2-methoxyphenyl)amino]-1H,5H,6H,7H-pyrrolo[3,2-c]pyridin-4-one; trifluoroacetic acid] |
| > 1000 | > 1000 | > 1000 | > 1000 | > 1000 | COc1c(Cl)cccc1Nc1c(-c2ccnc(NCC(C)(C)O)n2)[nH]c2c1C(=O)NCC2 [compound 288] |
